According to patent publication US12252524B2, “GIP/GLP1 co-agonist compounds” (Eli Lilly and Company, priority 2018, dated 2025):
Where two headings read alike, the source gives them in different places. Numbered stars: 1 amine (or outer) side, 2 acyl side, 3 side chain; on linkers, the order of the positions; unused ones are H or OH. Square brackets hold non-standard residues; d marks the D form. Side chains are listed from the residue outwards. Peptide text beside a SMILES is read from it. * marks the point of attachment. C20 diacid = O=C(O)CCCCCCCCCCCCCCCCCCC(=O)*; C18 diacid = O=C(O)CCCCCCCCCCCCCCCCC(=O)*; γGlu = O=C(O)[C@H](CCC(=O)[*:2])N[*:1]; αMeL = CC(C)C[C@](C)(N)C(=O)O; AEEA = NCCOCCOCC(=O)O; Aib = CC(C)(N)C(=O)O

Legend:
human Gcg receptor = target: T1, human Gcg receptor (Homo sapiens, UniProt P47871); test: [125I]-Glucagon binding (SPA), human Gcg receptor; settings: read-out: hGLcgR Ki, nM (SEM, n)
T1 construct: expressed in transfected cells; crude membranes
Method in brief: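 Crude membranes from cells expressing the receptor, prepared by hypotonic lysis in 50 mM Tris HCl pH 7.5 with protease inhibitors, homogenization and differential centrifugation, were used in a WGA-bead SPA. Binding buffer: 25 mM HEPES pH 7.4, 2.5 mM CaCl2, 1 mM MgCl2, bacitracin, Tween-20.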

human GIP receptor = target: T2, human GIP receptor (Homo sapiens, UniProt P48546); test: [125I]-GIP binding (SPA), human GIP receptor; settings: read-out: hGIPR Ki, nM (SEM, n)
T2 construct: expressed in transfected cells; crude membranes
T2 sequence (P48546 22-466): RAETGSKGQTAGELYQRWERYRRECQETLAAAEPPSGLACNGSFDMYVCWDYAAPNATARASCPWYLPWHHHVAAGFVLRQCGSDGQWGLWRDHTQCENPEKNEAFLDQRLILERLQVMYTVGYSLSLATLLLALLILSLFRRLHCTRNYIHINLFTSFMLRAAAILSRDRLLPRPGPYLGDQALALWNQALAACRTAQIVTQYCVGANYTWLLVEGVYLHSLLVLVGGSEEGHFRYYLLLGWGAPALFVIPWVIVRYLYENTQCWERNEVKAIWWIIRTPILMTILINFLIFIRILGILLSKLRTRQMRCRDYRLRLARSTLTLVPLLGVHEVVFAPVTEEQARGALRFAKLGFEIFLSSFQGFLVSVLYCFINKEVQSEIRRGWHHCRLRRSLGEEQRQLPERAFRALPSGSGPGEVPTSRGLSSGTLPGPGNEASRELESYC

[1] = target: human GLP-1 receptor (GLP-1R) (Homo sapiens, UniProt P43220); test: cAMP pharmacological functional assay in presence of casein, hGLP-1R; type: cell-based; settings: HEK293 cells expressing hGLP-1R, 0.1% Casein, geometric mean; read-out: hGLP1R cAMP Rel EC50 nM (SEM, n)
[2] = target: T3, gastric inhibitory peptide receptor (GIPR) (Homo sapiens, UniProt P48546); test: cAMP pharmacological functional assay in presence of casein, hGIPR; type: cell-based; settings: HEK293 cells expressing hGIPR, 0.1% Casein, geometric mean; read-out: hGIPR cAMP Rel EC50 nM (SEM, n)
T3 sequence (P48546 22-466): T2 sequence (P48546 22-466)

human GLP-1R [3] = target: T4, human GLP-1R (Homo sapiens, UniProt P43220); test: [125I]-GLP-1 binding (SPA), human GLP-1 receptor; parameters: expressed in transfected cells; crude membranes; settings: read-out: hGLP1R Ki, (nM) (SEM, n)
Method in brief: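 Frozen cell pellets are lysed on ice in hypotonic Tris buffer, pH 7.5, homogenized, and centrifuged to a membrane pellet resuspended at about 1 to 3 mg/mL. Binding is then measured in HEPES-based buffer at pH 7.4, and curves are fitted to give IC50 and Ki.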

human GLP-1R [4] = target: T4, human GLP-1R; test: GLP-1R CHO cell β-arrestin recruitment assay; type: cell-based; parameters: host or cells: CHO-K1 PathHunter cells, assay-ready frozen; settings: for EC50: CHO-K1 cells; for hGLP1R B-Arrestin2 % Top: normalized to GLP-1 maximum control
Source text: Activated G-protein coupled receptors can interact with the β-arrestin family of signalling proteins. […] CHO-K1 cells expressing Pro-Link-tagged Human GLP-1R and enzyme-acceptor-tagged β-arrestin-2 may be obtained from DiscoveRx and prepared as assay-ready frozen cells. Test peptides are solubilized in DMSO and serial dilutions are perfomed using the Echo acoustic dispenser (LabCyte). Assay media is the PathHunter Cell Assay Buffer (DiscoveRx) containing 0.1% w/v hydrolyzed Casein (Sigma). […] Plates are incubated for 90 minutes in a 37′C/5% C02 incubator and 10 ul of PathHunter detection reagent is added (DiscoveRx) and plates are incubated at room temperature for 60 minutes. Luminescence signal is measured. Peptide concentration-response curves fit to a four-parameter logistic model to calculate potency as an EC50.

[5] = PathHunter β-arrestin-2 recruitment, 0.1% casein, read-out: hGLP1R B-Arrestin2 Rel EC50 uM (SEM, n)

T4 sequence (P43220 24-463): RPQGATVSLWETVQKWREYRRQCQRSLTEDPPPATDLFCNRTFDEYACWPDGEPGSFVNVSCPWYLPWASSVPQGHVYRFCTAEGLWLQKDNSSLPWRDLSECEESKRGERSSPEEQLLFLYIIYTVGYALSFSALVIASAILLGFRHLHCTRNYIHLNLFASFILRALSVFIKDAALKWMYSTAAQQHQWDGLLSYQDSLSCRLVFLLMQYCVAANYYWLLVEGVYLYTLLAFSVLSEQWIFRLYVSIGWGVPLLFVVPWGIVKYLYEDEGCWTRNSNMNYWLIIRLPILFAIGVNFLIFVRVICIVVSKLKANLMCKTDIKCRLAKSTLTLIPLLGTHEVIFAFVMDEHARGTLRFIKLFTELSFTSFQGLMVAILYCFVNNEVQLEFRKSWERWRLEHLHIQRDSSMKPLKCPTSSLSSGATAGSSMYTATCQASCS
human GLP-1 receptor (GLP-1R), sequence (P43220 24-463): as above
T1 sequence (P47871 26-477): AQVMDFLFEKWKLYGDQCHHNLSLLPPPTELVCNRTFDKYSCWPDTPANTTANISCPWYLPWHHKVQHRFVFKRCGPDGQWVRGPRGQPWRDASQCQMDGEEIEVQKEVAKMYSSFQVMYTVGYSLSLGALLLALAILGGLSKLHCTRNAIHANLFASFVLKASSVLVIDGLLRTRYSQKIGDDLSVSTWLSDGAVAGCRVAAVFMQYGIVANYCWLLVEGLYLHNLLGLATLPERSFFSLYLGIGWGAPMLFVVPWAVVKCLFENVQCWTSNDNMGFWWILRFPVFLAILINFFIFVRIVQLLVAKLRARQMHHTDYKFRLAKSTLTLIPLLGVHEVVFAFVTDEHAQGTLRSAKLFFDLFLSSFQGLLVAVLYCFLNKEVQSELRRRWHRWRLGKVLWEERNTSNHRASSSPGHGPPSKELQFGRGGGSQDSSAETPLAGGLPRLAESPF

Structure (SMILES)	Ki (human Gcg receptor)	Ki (human GIP receptor)	EC50 [1]	EC50 [2]	Ki (human GLP-1R [3])	EC50 (human GLP-1R [4]; [5])	hGLP1R B-Arrestin2 % Top (human GLP-1R [4])	EC50 (human GLP-1R [4]; 0.1% w/v hydrolyzed Casein, read-out: hGLP1R B-Arrestin2 Rel EC50)
CC[C@H](C)[C@H](NC(=O)[C@H](CC(C)C)NC(=O)[C@H](Cc1ccc(O)cc1)NC(=O)[C@H](CCC(=O)O)NC(=O)[C@@H](NC(=O)[C@H](Cc1ccccc1)NC(=O)[C@H](Cc1c[nH]cn1)NC(=O)C(C)(C)NC(=O)[C@H](CCC(N)=O)NC(=O)[C@H](C)NC(=O)[C@H](CCCCNC(=O)COCCOCCNC(=O)COCCOCCNC(=O)CC[C@H](NC(=O)CCCCCCCCCCCCCCCCC(=O)O)C(=O)O)NC(=O)[C@H](CCCCN)NC(=O)[C@H](CC(=O)O)NC(=O)[C@H](CC(C)C)NC(=O)[C@H](CC(C)C)NC(=O)[C@@H](NC(=O)[C@H](CO)NC(=O)[C@H](Cc1ccc(O)cc1)NC(=O)[C@H](CC(=O)O)NC(=O)[C@H](CO)NC(=O)[C@@H](NC(=O)[C@H](Cc1ccccc1)NC(=O)[C@@H](NC(=O)CNC(=O)[C@H](CCC(=O)O)NC(=O)C(C)(C)NC(=O)[C@@H](N)Cc1ccc(O)cc1)[C@@H](C)O)[C@@H](C)O)[C@@H](C)CC)[C@@H](C)CC)C(=O)N[C@@H](CCC(=O)O)C(=O)NCC(=O)NCC(=O)N1CCC[C@H]1C(=O)N[C@@H](CO)C(=O)N[C@@H](CO)C(=O)NCC(N)=O [Example 322] (H-Y[Aib]EGTFTSDYSILLDKK([AEEA-AEEA-γGlu-C18 diacid])AQ[Aib]HFIEYLIEGGPSSG-NH2)	1030 nM	0.175 nM	0.711 nM	0.146 nM	2.31 nM	–	–	–
CC[C@H](C)[C@H](NC(=O)[C@H](CC(C)C)NC(=O)[C@H](Cc1ccc(O)cc1)NC(=O)[C@H](CCC(=O)O)NC(=O)[C@@H](NC(=O)[C@H](Cc1ccccc1)NC(=O)[C@H](CCC(=O)O)NC(=O)C(C)(C)NC(=O)[C@H](CCC(N)=O)NC(=O)[C@H](C)NC(=O)[C@H](CCCCNC(=O)COCCOCCNC(=O)COCCOCCNC(=O)CC[C@H](NC(=O)CCCCCCCCCCCCCCCCCCC(=O)O)C(=O)O)NC(=O)[C@H](CCCCN)NC(=O)[C@H](CC(=O)O)NC(=O)[C@H](CC(C)C)NC(=O)[C@](C)(CC(C)C)NC(=O)[C@@H](NC(=O)[C@H](CO)NC(=O)[C@H](Cc1ccc(O)cc1)NC(=O)[C@H](CC(=O)O)NC(=O)[C@H](CO)NC(=O)[C@@H](NC(=O)[C@H](Cc1ccccc1)NC(=O)[C@@H](NC(=O)CNC(=O)[C@H](CCC(=O)O)NC(=O)C(C)(C)NC(=O)[C@@H](N)Cc1ccccc1)[C@@H](C)O)[C@@H](C)O)[C@@H](C)CC)[C@@H](C)CC)C(=O)N[C@@H](C)C(=O)NCC(=O)NCC(=O)N1CCC[C@H]1C(=O)N[C@@H](CO)C(=O)N[C@@H](CO)C(=O)NCC(=O)N[C@@H](C)C(=O)N1CCC[C@H]1C(=O)N1CCC[C@H]1C(=O)N1CCC[C@H]1C(=O)N[C@@H](CO)C(N)=O [Example 338] (H-F[Aib]EGTFTSDYSI[αMeL]LDKK([AEEA-AEEA-γGlu-C20 diacid])AQ[Aib]EFIEYLIAGGPSSGAPPPS-NH2)	> 1060 nM	0.0831 nM	0.174 nM	0.0472 nM	3.23 nM	0.0189 µM	47%	–
CC[C@H](C)[C@H](NC(=O)[C@H](CC(C)C)NC(=O)[C@H](Cc1ccc(O)cc1)NC(=O)[C@@H](CCC(=O)O)NC(=O)[C@@H](NC(=O)[C@H](Cc1ccccc1)NC(=O)[C@H](C)NC(=O)C(C)(C)NC(=O)[C@H](CCC(N)=O)NC(=O)[C@H](C)NC(=O)[C@H](CCCCNC(=O)COCCOCCNC(=O)COCCOCCNC(=O)CC[C@H](NC(=O)CCCCCCCCCCCCCCCCCCC(=O)O)C(=O)O)NC(=O)[C@H](CCCCN)NC(=O)[C@H](CC(=O)O)NC(=O)[C@H](CC(C)C)NC(=O)[C@](C)(CC(C)C)NC(=O)[C@@H](NC(=O)[C@H](CO)NC(=O)[C@H](Cc1ccc(O)cc1)NC(=O)[C@H](CC(=O)O)NC(=O)[C@H](CO)NC(=O)[C@@H](NC(=O)[C@H](Cc1ccccc1)NC(=O)[C@@H](NC(=O)CNC(=O)[C@H](CCC(=O)O)NC(=O)C(C)(C)NC(=O)[C@H](N)Cc1ccc(O)cc1)[C@@H](C)O)[C@@H](C)O)[C@@H](C)CC)[C@@H](C)CC)C(=O)N[C@@H](CCC(=O)O)C(=O)NCC(=O)NCC(=O)N1CCC[C@H]1C(=O)N[C@@H](CO)C(=O)N[C@@H](CO)C(=O)NCC(=O)N[C@@H](C)C(=O)N1CCC[C@H]1C(=O)N1CCC[C@H]1C(=O)N1CCC[C@H]1C(=O)N[C@@H](CO)C(N)=O [Example 356]	> 1010 nM	0.35 nM	0.506 nM	0.386 nM	10.3 nM	> 10.5 µM	–	> 10.5 µM
CC[C@H](C)[C@H](NC(=O)[C@H](CC(C)C)NC(=O)[C@H](Cc1ccc(O)cc1)NC(=O)[C@@H](CCC(=O)O)NC(=O)[C@@H](NC(=O)[C@H](Cc1ccccc1)NC(=O)[C@H](C)NC(=O)C(C)(C)NC(=O)[C@H](CCC(N)=O)NC(=O)[C@H](C)NC(=O)[C@H](CCCCNC(=O)COCCOCCNC(=O)COCCOCCNC(=O)CC[C@H](NC(=O)CCCCCCCCCCCCCCCCCCC(=O)O)C(=O)O)NC(=O)[C@H](CCCN)NC(=O)[C@H](CC(=O)O)NC(=O)[C@H](CC(C)C)NC(=O)[C@](C)(CC(C)C)NC(=O)[C@@H](NC(=O)[C@H](CO)NC(=O)[C@H](Cc1ccc(O)cc1)NC(=O)[C@H](CC(=O)O)NC(=O)[C@H](CO)NC(=O)[C@@H](NC(=O)[C@H](Cc1ccccc1)NC(=O)[C@@H](NC(=O)CNC(=O)[C@H](CCC(=O)O)NC(=O)C(C)(C)NC(=O)[C@H](N)Cc1ccc(O)cc1)[C@@H](C)O)[C@@H](C)O)[C@@H](C)CC)[C@@H](C)CC)C(=O)N[C@@H](CCC(=O)O)C(=O)NCC(=O)NCC(=O)N1CCC[C@H]1C(=O)N[C@@H](CO)C(=O)N[C@@H](CO)C(=O)NCC(=O)N[C@@H](C)C(=O)N1CCC[C@H]1C(=O)N1CCC[C@H]1C(=O)N1CCC[C@H]1C(=O)N[C@@H](CO)C(N)=O [Example 357]	> 977 nM	0.316 nM	0.181 nM	0.384 nM	7.02 nM	0.118 µM	18.2%	–
CC[C@H](C)[C@H](NC(=O)[C@H](CC(C)C)NC(=O)[C@H](Cc1ccc(O)cc1)NC(=O)[C@@H](CCC(=O)O)NC(=O)[C@@H](NC(=O)[C@H](Cc1ccccc1)NC(=O)[C@H](C)NC(=O)C(C)(C)NC(=O)[C@H](CCC(N)=O)NC(=O)[C@H](C)NC(=O)[C@H](CCCCNC(=O)COCCOCCNC(=O)COCCOCCNC(=O)CC[C@H](NC(=O)CCCCCCCCCCCCCCCCCCC(=O)O)C(=O)O)NC(=O)[C@H](CCCCN)NC(=O)[C@H](CC(=O)O)NC(=O)[C@H](CC(C)C)NC(=O)[C@](C)(CC(C)C)NC(=O)[C@@H](NC(=O)[C@H](CO)NC(=O)[C@H](Cc1ccc(O)cc1)NC(=O)[C@H](CC(=O)O)NC(=O)[C@H](CO)NC(=O)[C@@H](NC(=O)[C@H](Cc1ccccc1)NC(=O)[C@@H](NC(=O)CNC(=O)[C@H](CCC(=O)O)NC(=O)C(C)(C)NC(=O)[C@H](N)Cc1ccc(O)cc1)[C@@H](C)O)[C@@H](C)O)[C@@H](C)CC)C(C)C)C(=O)N[C@@H](C)C(=O)NCC(=O)NCC(=O)N1CCC[C@H]1C(=O)N[C@@H](CO)C(=O)N[C@@H](CO)C(=O)NCC(=O)N[C@@H](C)C(=O)N1CCC[C@H]1C(=O)N1CCC[C@H]1C(=O)N1CCC[C@H]1C(=O)N[C@@H](CO)C(N)=O [Example 361] (H-[dY][Aib]EGTFTSDYSI[αMeL]LDKK([AEEA-AEEA-γGlu-C20 diacid])AQ[Aib]AFV[dE]YLIAGGPSSGAPPPS-NH2)	–	–	0.955 nM	0.401 nM	–	0.269 µM	20.2%	–
